Measurements published in patent US11219598B2, “Ophthalmic drug sustained release device” (PUBLIC UNIVERSITY CORPORATION NAGOYA CITY UNIVERSITY, priority 2016, dated 2022).

Test: Drug release test of solid fluorescein sodium-enclosed PMMA hollow device filled with SF6 gas after transplantation into rabbit
Format: in vivo
Details: fluorescence intensity meter, after initial burst, from the first week
Description: In order to prepare a hollow device made of a polymethyl methacrylate (PMMA) resin as an acrylic resin having low oxygen permeability, outer edge portions of optical parts of two PMMA intraocular lenses were bonded with an adhesive, as a trial model. The cavity volume was calculated to be 11.3 μL. One opening part was made without using an adhesive (arrow) (FIG. 3(A), and FIG. 4). In order to examine the drug release property, a 10% aqueous solution of sodium fluorescein as a low-molecular-weight water-soluble fluorescent dye was filled in the cavity of the PMMA hollow device and air-dried (FIG. 3(B)). The solid fluorescein sodium-enclosed PMMA hollow device was placed in 100% SF6 gas, and its hollow portion was filled with the gas (FIG. 3(B)). After a rabbit was anesthetized by intramuscular injection of Ketalar and Selactar, the pupil of the right eye was dilated with a […] hydrochloride ophthalmic solution (Mydrin-P (registered trademark), Santen Pharmaceutical Co., Ltd.). […] The residual amount of gas was measured from the photograph of the anterior ocular segment and the content of fluorescein sodium in the anterior chamber water sample was measured with a fluorescence intensity meter. […]

For O=C1OC2(c3ccc(O)cc3Oc3cc(O)ccc32)c2ccccc21 [fluorescein sodium, sodium fluorescein], the “drug release profile (fluorescein sodium content in anterior chamber water)” value was “stable sustained release”.
